# Assay results from PubChem BioAssay (NCI).
#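 Results reflect a 48-hour exposure of cells in 96-well plates to compound at five concentrations. Abbreviation: GI50, concentration required for 50% inhibition of growth. TGI: concentration producing complete growth inhibition.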
# Assays:
# Assay in all cases: DTP human tumour cell line panel, 48 h
# SNB-19 CNS = test system: SNB-19 CNS
# OVCAR-3 ovarian = test system: OVCAR-3 ovarian
# UACC-257 melanoma = test system: UACC-257 melanoma
# HCT-15 colon = test system: HCT-15 colon
# U251 CNS = test system: U251 CNS
# BT-549 breast = test system: BT-549 breast
# MOLT-4 leukemia = test system: MOLT-4 leukemia
# SK-MEL-5 melanoma = test system: SK-MEL-5 melanoma
# T-47D breast = test system: T-47D breast
# NCI/ADR-RES ovarian = test system: NCI/ADR-RES ovarian
# MDA-MB-231 breast = test system: MDA-MB-231 breast
# HS 578T breast = test system: HS 578T breast
# NCI-H226 lung = test system: NCI-H226 lung
# HCT-116 colon = test system: HCT-116 colon
# MCF7 breast = test system: MCF7 breast
# SF-295 CNS = test system: SF-295 CNS
# SK-OV-3 ovarian = test system: SK-OV-3 ovarian
# LOX IMVI melanoma = test system: LOX IMVI melanoma
# ACHN renal = test system: ACHN renal
# MALME-3M melanoma = test system: MALME-3M melanoma
# EKVX NSCLC = test system: EKVX NSCLC
# RPMI-8226 leukemia = test system: RPMI-8226 leukemia
# OVCAR-5 ovarian = test system: OVCAR-5 ovarian
# SW-620 colon = test system: SW-620 colon
# OVCAR-4 ovarian = test system: OVCAR-4 ovarian
# A549 NSCLC = test system: A549 NSCLC
# PC-3 prostate = test system: PC-3 prostate
# SK-MEL-28 melanoma = test system: SK-MEL-28 melanoma
# COLO 205 colon = test system: COLO 205 colon
smiles,measurement,setting,value
CCN(C(=O)N1CCN(c2cc3c(cc2F)c(=O)c(C(=O)O)cn3C2CC2)CC1)c1nc(-c2ccc(Cl)cc2)cs1,GI50,SNB-19 CNS,1090 nM
same,TGI,SNB-19 CNS,49500 nM
same,GI50,OVCAR-3 ovarian,1220 nM
same,TGI,OVCAR-3 ovarian,> 100000 nM
same,GI50,UACC-257 melanoma,2530 nM
same,TGI,UACC-257 melanoma,7300 nM
same,GI50,HCT-15 colon,967 nM
same,TGI,HCT-15 colon,> 100000 nM
same,GI50,U251 CNS,1150 nM
same,TGI,U251 CNS,29700 nM
same,GI50,BT-549 breast,1020 nM
same,TGI,BT-549 breast,5610 nM
same,GI50,MOLT-4 leukemia,542 nM
same,TGI,MOLT-4 leukemia,3670 nM
same,GI50,SK-MEL-5 melanoma,1990 nM
same,TGI,SK-MEL-5 melanoma,15900 nM
same,GI50,T-47D breast,1990 nM
same,TGI,T-47D breast,> 100000 nM
same,GI50,NCI/ADR-RES ovarian,2070 nM
same,TGI,NCI/ADR-RES ovarian,13700 nM
same,GI50,MDA-MB-231 breast,1690 nM
same,TGI,MDA-MB-231 breast,6350 nM
same,GI50,HS 578T breast,1260 nM
same,TGI,HS 578T breast,13000 nM
same,GI50,NCI-H226 lung,1790 nM
same,TGI,NCI-H226 lung,5200 nM
same,GI50,HCT-116 colon,1100 nM
same,TGI,HCT-116 colon,> 100000 nM
same,GI50,MCF7 breast,2970 nM
same,TGI,MCF7 breast,> 100000 nM
same,GI50,SF-295 CNS,888 nM
same,TGI,SF-295 CNS,6000 nM
same,GI50,SK-OV-3 ovarian,1830 nM
same,TGI,SK-OV-3 ovarian,6460 nM
same,GI50,LOX IMVI melanoma,370 nM
same,TGI,LOX IMVI melanoma,1630 nM
same,GI50,ACHN renal,1240 nM
same,TGI,ACHN renal,10100 nM
same,GI50,MALME-3M melanoma,1380 nM
same,TGI,MALME-3M melanoma,5950 nM
same,GI50,EKVX NSCLC,2540 nM
same,TGI,EKVX NSCLC,> 100000 nM
same,GI50,RPMI-8226 leukemia,838 nM
same,TGI,RPMI-8226 leukemia,3170 nM
same,GI50,OVCAR-5 ovarian,2620 nM
same,TGI,OVCAR-5 ovarian,> 100000 nM
same,GI50,SW-620 colon,1830 nM
same,TGI,SW-620 colon,> 100000 nM
same,GI50,OVCAR-4 ovarian,1480 nM
same,TGI,OVCAR-4 ovarian,> 57100 nM
same,GI50,A549 NSCLC,1010 nM
same,TGI,A549 NSCLC,> 100000 nM
same,GI50,PC-3 prostate,858 nM
same,TGI,PC-3 prostate,> 26000 nM
same,GI50,SK-MEL-28 melanoma,1910 nM
same,TGI,SK-MEL-28 melanoma,> 100000 nM
same,GI50,COLO 205 colon,2000 nM
same,TGI,COLO 205 colon,6170 nM
